The values below come from patent publication US20230026611A1, “ARYL HETEROCYCLIC COMPOUNDS AS Kv1.3 POTASSIUM SHAKER CHANNEL BLOCKERS” (D. E. Shaw Research, LLC, priority 2019, published 2023).

One experiment deals with hERG channel (Homo sapiens, UniProt Q12809). Kind of experiment: hERG electrophysiology, automated whole-cell patch clamp (Patchliner) in CHO-K1 cells stably expressing hERG. On the technique in general: The hERG channel carries a current that helps repolarise heart muscle cells.
A further experiment deals with T1, Kv1.3 potassium channel (Homo sapiens, UniProt P22001).
T1 construct: expressed in transfected cells
Kind of experiment: Kv1.3 potassium channel blocker activity, automated whole-cell patch clamp (Patchliner) in CHO-K1 cells stably expressing Kv1.3. Format: cell-based. To be noted: CHO-K1 cells stably expressing Kv1.3; patch clamp, current inhibition; read-out: Kv1.3 IC50. The procedure:
Example 82. Evaluation of Kv1.3 potassium channel blocker activities
This assay is used to evaluate the disclosed compounds' activities as Kv1.3 potassium channel blockers.
CHO-K1 cells stably expressing Kv1.3 were grown in DMEM containing 10% heat-inactivated FBS, 1 mM sodium pyruvate, 2 mM L-glutamine, and G418 (500 μg/ml).
All compounds were dissolved in DMSO at 30 mM.
The currents were evoked by applying 100 ms depolarizing pulses from −90 mV (holding potential) to +40 mV were applied with 0.1 Hz frequency. […] 10-second breaks were used between pulse trains (see Table A below).
Data were sampled at 10 kHz without filtering. Passive leak currents were subtracted online using a P/4 procedure (HEKA Elektronik Dr. Schulze GmbH). […] Total compound incubation time before the next pulse train was not longer than 10 seconds. Peak current inhibition was observed during compound equilibration.

hERG channel, sequence (Q12809 whole entry): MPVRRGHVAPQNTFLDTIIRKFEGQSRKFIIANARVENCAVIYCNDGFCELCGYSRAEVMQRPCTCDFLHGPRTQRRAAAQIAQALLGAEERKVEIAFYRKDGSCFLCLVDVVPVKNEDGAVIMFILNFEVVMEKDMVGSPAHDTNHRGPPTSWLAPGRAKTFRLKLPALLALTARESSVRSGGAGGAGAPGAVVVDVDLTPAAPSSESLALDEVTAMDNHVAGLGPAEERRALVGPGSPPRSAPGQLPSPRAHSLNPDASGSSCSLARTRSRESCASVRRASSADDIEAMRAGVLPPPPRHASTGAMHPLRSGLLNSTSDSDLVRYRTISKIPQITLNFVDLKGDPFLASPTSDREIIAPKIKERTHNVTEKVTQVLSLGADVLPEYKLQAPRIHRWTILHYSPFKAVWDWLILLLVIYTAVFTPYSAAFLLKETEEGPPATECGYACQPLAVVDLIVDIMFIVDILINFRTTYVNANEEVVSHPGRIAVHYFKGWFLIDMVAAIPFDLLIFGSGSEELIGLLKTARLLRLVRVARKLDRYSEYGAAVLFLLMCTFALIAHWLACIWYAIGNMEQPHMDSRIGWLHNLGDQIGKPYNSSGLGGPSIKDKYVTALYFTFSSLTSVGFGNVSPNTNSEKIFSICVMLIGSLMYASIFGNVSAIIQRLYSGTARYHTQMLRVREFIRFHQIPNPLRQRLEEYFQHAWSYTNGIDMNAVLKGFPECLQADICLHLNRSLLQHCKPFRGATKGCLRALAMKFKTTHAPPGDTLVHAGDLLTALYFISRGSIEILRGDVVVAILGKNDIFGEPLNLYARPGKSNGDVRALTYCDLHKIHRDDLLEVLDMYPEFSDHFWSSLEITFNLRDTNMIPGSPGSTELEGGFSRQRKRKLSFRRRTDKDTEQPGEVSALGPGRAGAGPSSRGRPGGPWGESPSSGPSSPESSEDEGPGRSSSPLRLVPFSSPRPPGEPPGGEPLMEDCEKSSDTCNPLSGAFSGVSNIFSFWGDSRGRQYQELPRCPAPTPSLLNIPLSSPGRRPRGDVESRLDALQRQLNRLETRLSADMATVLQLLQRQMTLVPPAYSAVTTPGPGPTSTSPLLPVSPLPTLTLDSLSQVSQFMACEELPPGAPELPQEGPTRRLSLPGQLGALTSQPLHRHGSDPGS
T1 sequence (P22001 whole entry): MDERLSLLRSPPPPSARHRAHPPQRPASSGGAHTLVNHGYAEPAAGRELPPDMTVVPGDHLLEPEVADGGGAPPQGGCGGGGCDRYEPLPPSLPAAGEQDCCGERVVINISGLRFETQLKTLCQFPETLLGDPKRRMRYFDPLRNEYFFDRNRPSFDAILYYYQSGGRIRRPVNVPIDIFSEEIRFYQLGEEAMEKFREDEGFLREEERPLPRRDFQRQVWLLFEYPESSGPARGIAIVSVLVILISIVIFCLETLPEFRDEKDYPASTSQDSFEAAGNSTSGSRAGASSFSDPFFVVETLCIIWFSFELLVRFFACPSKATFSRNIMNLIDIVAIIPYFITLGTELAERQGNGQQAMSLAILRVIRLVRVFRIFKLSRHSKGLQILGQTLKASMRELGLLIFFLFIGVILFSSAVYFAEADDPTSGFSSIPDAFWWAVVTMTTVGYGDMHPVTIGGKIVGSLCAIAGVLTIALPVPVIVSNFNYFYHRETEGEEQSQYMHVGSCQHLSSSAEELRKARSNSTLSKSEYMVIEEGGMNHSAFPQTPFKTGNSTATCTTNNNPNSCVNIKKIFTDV
Procedure for hERG channel: Evaluation of hERG Activities
This assay is used to evaluate the disclosed compounds's inhibition activities against the hERG channel.
CHO-K1 cells stably expressing hERG were grown in Ham's F-12 Medium with glutamine containing 10% heat-inactivated FBS, 1% penicillin/streptomycin, hygromycin (100 μg/ml) and G418 (100 μg/ml). Cells were grown in culture flasks at 37° C. in a 5% CO2-humidified incubator.
The cells were bathed in an extracellular solution containing 140 mM NaCl, 4 mM KCl, 2 mM CaCl2), 1 mM MgCl2, 5 mM Glucose, 10 mM HEPES; pH adjusted to 7.4 with NaOH; 295-305 mOsm. The internal solution contained 50 mM KCl, 10 mM NaCl, 60 mM KF, 20 mM EGTA, 10 mM HEPES; pH adjusted to 7.2 with KOH; 285 mOsm. All compounds were dissolved in DMSO at 30 mM. Compound stock solutions were freshly diluted with external solution to concentrations of 30 nM, 100 nM, 300 nM, 1 μM, 3 μM, 10 μM, 30 μM and 100 μM. The highest content of DMSO (0.3%) was present in 100 μM.
The voltage protocol (see Table B) was designed to simulate voltage changes during a cardiac action potential with a 300 ms depolarization to +20 mV (analogous to the plateau phase of the cardiac action potential), a repolarization for 300 ms to −50 mV (inducing a tail current) and a final step to the holding potential of −80 mV. The pulse frequency was 0.3 Hz. Control (compound-free) and compound pulse trains for each compound concentration applied contained 70 pulses.
Whole-cell current recordings and compound application were enabled by means of an automated patch clamp platform Patchliner (Nanion). EPC 10 patch clamp amplifier (HEKA) along with Patchmaster software (HEKA Elektronik Dr. Schulze GmbH) was used for data acquisition. Data were sampled at 10 kHz without filtering. Increasing compound concentrations were applied consecutively to the same cell without washouts in between.
AUC and PEAK values were obtained with Patchmaster (HEKA Elektronik Dr. Schulze GmbH). To determine IC50 the last single pulse in the pulse train corresponding to a given compound concentration was used. Obtained AUC and PEAK values in the presence of compound were normalized to control values in the absence of compound. Using Origin (OridinLab), IC50 was derived from data fit to Hill equation: Icompound/control=(100−A)/(1+([compound]/IC50)nH)+A, where IC50 is the concentration at which current inhibition is half-maximal, [compound] is the applied compound concentration, A is the fraction of current that is not blocked and nH is the Hill coefficient.

As for `Oc1cc(Cl)c(Cl)cc1C1=CCNCC1` [Compound 9, 4,5-dichloro-2-(1,2,3,6-tetrahydropyridin-4-yl)phenol], the values for the IC50 against hERG channel and on Kv1.3 potassium channel were less than 30 µM and less than 1 µM, respectively.

Turning to `O=C(NC1CNC1)[C@@H]1CN[C@@H](c2c(O)ccc(Cl)c2Cl)C1` (single isomer, unassigned) [Compound 122], the figures for the IC50 against hERG channel and at Kv1.3 potassium channel were more than 100 µM and less than 1 µM, respectively.

Take `NC(=O)C[C@@H]1C[C@H](c2c(O)ccc(Cl)c2Cl)CCN1` (single isomer, unassigned) [Compound 109]: the IC50 on hERG channel was more than 30 µM; on Kv1.3 potassium channel, less than 1 µM.

Consider `Oc1cc(Cl)c(Cl)cc1N1CCNCC1` [Compound 5, 4,5-dichloro-2-(piperazin-1-yl)phenol], for which the IC50 at hERG channel was less than 30 µM; at Kv1.3 potassium channel, less than 10 µM.

Take `CNC1CCN(c2cc(Cl)c(Cl)cc2O)CC1` [Compound 24, 4,5-dichloro-2-[4-(methylamino)pip-eridin-1-yl]phenol]: the IC50 was less than 30 µM on hERG channel and less than 1 µM at Kv1.3 potassium channel.

Turning to `Oc1cc(Cl)cc(Cl)c1C1CCNCC1` [Compound 57, 3,5-dichloro-2-(piperidin-4-yl)phenol], the IC50 at hERG channel was less than 30 µM; at Kv1.3 potassium channel it was less than 1 µM.

`NC(=O)[C@@H]1C[C@H](c2c(O)ccc(Cl)c2Cl)CCN1` (single isomer, unassigned) [Compound 73]: the figures for the IC50 at hERG channel and at Kv1.3 potassium channel were more than 30 µM and less than 1 µM, respectively.

In the case of `O=C(C[C@H]1C[C@@H](c2c(O)ccc(Cl)c2Cl)CCN1)NC1CCC1` (relative stereo) [Compound 111, N-cyclobutyl-(2R,4S)-rel-2-[4-(2,3-dichloro-6-hydroxyphenyl)piperidin-2-yl]acetamide], the IC50 against hERG channel was less than 30 µM; at Kv1.3 potassium channel it was less than 1 µM.

As for `O=C(C[C@H]1CC(c2c(O)ccc(Cl)c2Cl)CCN1)N1CCOCC1` (single isomer, unassigned) [Compound 67], the IC50 against hERG channel was more than 30 µM; at Kv1.3 potassium channel, less than 1 µM.

With `NCC1CCN(c2cc(Cl)c(Cl)cc2O)CC1` [Compound 28, 2-[4-(aminomethyl)pip-eridin-1-yl]-4,5-dichlorophenol], the IC50 on hERG channel was less than 30 µM; on Kv1.3 potassium channel it was less than 1 µM.

In the case of `Oc1ccc(Cl)c(Cl)c1C1CCNC(c2cn[nH]c2)C1` (centres unmarked) [Compound 116, 3,4-dichloro-2-[2-(1H-pyrazol-4-yl)piperidin-4-yl]phenol], the IC50 is more than 30 µM against hERG channel and less than 1 µM at Kv1.3 potassium channel.

Consider `O=C(NC1CNC1)C1CCC(c2c(O)ccc(Cl)c2Cl)NC1` (centres unmarked) [Compound 125, N-(azetidin-3-yl)-6-(2,3-dichloro-6-hydroxyphenyl)piperidine-3-carboxamide], for which the values for the IC50 on hERG channel and on Kv1.3 potassium channel were more than 100 µM and less than 10 µM, respectively.

On to `NC(=O)N1CCC(c2c(O)cc(Cl)c(Cl)c2Cl)CC1` [Compound 60, 4-(2,3,4-trichloro-6-hydroxyphenyl)piperidine-1-carboxamide], for which the IC50 against hERG channel is less than 30 µM; at Kv1.3 potassium channel, less than 1 µM.

For `OCC1CC(c2cc(Cl)c(Cl)cc2O)CCN1` (centres unmarked) [Compound 27, 4,5-dichloro-2-[2-(hydroxymethyl)piperidin-4-yl]phenol], the IC50 is more than 30 µM at hERG channel and less than 10 µM on Kv1.3 potassium channel.

For the compound `NC(=O)[C@H]1C[C@@H](c2c(O)cc(Cl)c(Cl)c2Cl)CCN1` (single isomer, unassigned) [Compound 65], the IC50 was less than 30 µM against hERG channel and less than 1 µM at Kv1.3 potassium channel.

Consider `Cn1cc(NC(=O)C[C@H]2C[C@@H](c3c(O)ccc(Cl)c3Cl)CCN2)cn1` (relative stereo) [Compound 114, (2R,4S)-rel-2-[4-(2,3-dichloro-6-hydroxyphenyl)piperidin-2-yl]-N-(1-methyl-1H-pyrazol-4-yl)acetamide], for which the IC50 was more than 30 µM at hERG channel and less than 1 µM on Kv1.3 potassium channel.

As to `CS(=O)(=O)NC[C@H]1C[C@@H](c2c(O)ccc(Cl)c2Cl)CCN1` (relative stereo) [Compound 110, (2R,4S)-rel-N-[[4-(2,3-dichloro-6-hydroxyphenyl)piperidin-2-yl]methyl]methanesulfonamide], the IC50 was more than 30 µM against hERG channel and less than 1 µM at Kv1.3 potassium channel.

As to `O=C(C[C@@H]1C[C@H](c2c(O)ccc(Cl)c2Cl)CCN1)N1CCOCC1` (single isomer, unassigned) [Compound 32], the IC50 against hERG channel is more than 30 µM; on Kv1.3 potassium channel it was less than 1 µM.

Regarding `CN(C)C1CCN(c2cc(Cl)c(Cl)cc2O)CC1` [Compound 23, 4,5-dichloro-2-[4-(dimethylamino)piperidin-1-yl]phenol], the results for the IC50 on hERG channel and at Kv1.3 potassium channel were less than 30 µM and less than 1 µM, respectively.

As to `CNC(=O)C1CC(c2c(O)ccc(Cl)c2Cl)CCN1` (centres unmarked) [Compound 72, 4-(2,3-dichloro-6-hydroxyphenyl)-N-methylpiperidine-2-carboxamide], the figures for the IC50 on hERG channel and at Kv1.3 potassium channel were more than 30 µM and less than 1 µM, respectively.

Consider `Oc1cc(Cl)c(Cl)cc1C1CCCNCC1` (centres unmarked) [Compound 39, 2-(azepan-4-yl)-4,5-dichlorophenol], for which the IC50 at hERG channel was less than 30 µM; at Kv1.3 potassium channel it was less than 1 µM.

As for `O=C([C@H]1CCNC1)N1CCC(c2c(O)cc(Cl)c(Cl)c2Cl)CC1` [Compound 91, 3,4,5-trichloro-2-[1-[(3S)-pyrrolidine-3-carbonyl]piperidin-4-yl]phenol], the results for the IC50 on hERG channel and on Kv1.3 potassium channel were less than 30 µM and less than 1 µM, respectively.

Turning to `Oc1ccc(Cl)c(Cl)c1C1CCNCC1` [Compound 55, 3,4-dichloro-2-(piperidin-4-yl)phenol], the half-maximal inhibitory concentration (IC50) against hERG channel was less than 30 µM; at Kv1.3 potassium channel it was less than 1 µM.

As to `NC(=O)[C@@H]1C[C@H](c2c(O)cc(Cl)c(Cl)c2Cl)CCN1` (single isomer, unassigned) [Compound 63], the values for the IC50 on hERG channel and on Kv1.3 potassium channel were less than 30 µM and less than 1 µM, respectively.

Take `O=S(=O)(NCC1CC(c2c(O)ccc(Cl)c2Cl)CCN1)c1ccccc1` [Compound 94, N-(2R,4S)-rel-[[4-(2,3-dichloro-6-hydroxyphenyl)piperidin-2-yl]methyl]benzenesulfonamide]: the IC50 on hERG channel is less than 30 µM; at Kv1.3 potassium channel it was less than 1 µM.

As for `CN1CCC(c2cc(Cl)c(Cl)cc2O)CC1` [Compound 4, 4,5-dichloro-2-(1-methylpiperidin-4-yl)phenol], the IC50 is less than 30 µM on hERG channel and less than 1 µM on Kv1.3 potassium channel.

On to `O=C(C[C@H]1C[C@@H](c2c(O)ccc(Cl)c2Cl)CCN1)N1CCOCC1` (relative stereo) [Compound 113, 2-[4-(2,3-dichloro-6-hydroxyphenyl)piperidin-2-yl]-1-(morpholin-4-yl)ethan-1-one], for which the results for the IC50 against hERG channel and at Kv1.3 potassium channel were more than 30 µM and less than 1 µM, respectively.

Consider `CNC(=O)C[C@H]1C[C@@H](c2c(O)ccc(Cl)c2Cl)CCN1` (single isomer, unassigned) [Compound 30], for which the IC50 at hERG channel is more than 30 µM; on Kv1.3 potassium channel, less than 1 µM.

With `O=S1(=O)CCCN1CC1CC(c2c(O)ccc(Cl)c2Cl)CCN1` (centres unmarked) [Compound 112, 2-[[4-(2,3-dichloro-6-hydroxyphenyl)piperidin-2-yl]methyl]-1,2-thiazolidine-1,1-dione], the IC50 against hERG channel is less than 30 µM; at Kv1.3 potassium channel, less than 1 µM.

`NCC1CN(c2cc(Cl)c(Cl)cc2O)C1` [Compound 31, 2-(3-(aminomethyl)aze-tidin-1-yl)-4,5-dichlorophenol]: the IC50 is less than 30 µM against hERG channel and less than 1 µM on Kv1.3 potassium channel.

Consider `Oc1cc(Cl)c(Cl)cc1C1CCNCC1` [Compound 3, 4,5-dichloro-2-(piperidin-4-yl)phenol], for which the figures for the IC50 at hERG channel and on Kv1.3 potassium channel were less than 30 µM and less than 1 µM, respectively.

For `Oc1cc(Cl)c(Cl)cc1C1CCNC(C2CC2)C1` (centres unmarked) [Compound 43, 4,5-dichloro-2-(2-cyclopropylpiperidin-4-yl)phenol], the IC50 at hERG channel is less than 30 µM; on Kv1.3 potassium channel it was less than 1 µM.

In the case of `Oc1cc(Cl)c(Cl)cc1C1CCCNC1` (centres unmarked) [Compound 16, 4,5-dichloro-2-(piperidin-3-yl)phenol], the IC50 is less than 30 µM on hERG channel and less than 1 µM on Kv1.3 potassium channel.

As to `NCC(=O)N1CCC(c2c(O)cc(Cl)c(Cl)c2Cl)CC1` [Compound 98, 2-amino-1-[4-(2,3,4-trichloro-6-hydroxyphenyl)piperidin-1-yl]ethan-1-one], the IC50 at hERG channel was less than 30 µM; at Kv1.3 potassium channel, less than 1 µM.

In the case of `NC(=O)CC1CC(c2c(O)ccc(Cl)c2Cl)CCN1` [Compound 101, 2-[(2R,4S)-rel-4-(2,3-dichloro-6-hydroxyphenyl)piperidin-2-yl]acetamide], the IC50 is more than 30 µM on hERG channel and less than 1 µM at Kv1.3 potassium channel.

Take `O=C(NCC1CC(c2c(O)ccc(Cl)c2Cl)CCN1)C1COC1` [Compound 104, (2R,4S)-rel-N-[[4-(2,3-dichloro-6-hydroxyphenyl)piperidin-2-yl]methyl]oxetane-3-carboxamide]: the IC50 at hERG channel is more than 30 µM; at Kv1.3 potassium channel, less than 1 µM.

As to `O=C(NC1CNC1)[C@H]1CC[C@H](c2c(O)ccc(Cl)c2Cl)N1` (single isomer, unassigned) [Compound 118], the results for the IC50 at hERG channel and at Kv1.3 potassium channel were more than 100 µM and less than 1 µM, respectively.

As to `CC(=O)NC[C@@H]1CC(c2c(O)ccc(Cl)c2Cl)CCN1` (single isomer, unassigned) [Compound 89], the IC50 was more than 30 µM at hERG channel and less than 1 µM at Kv1.3 potassium channel.

As for `CS(=O)(=O)NC[C@@H]1C[C@H](c2c(O)ccc(Cl)c2Cl)CCN1` (single isomer, unassigned) [Compound 107], the IC50 against hERG channel is more than 30 µM; on Kv1.3 potassium channel, less than 1 µM.

Turning to `Oc1cc(Cl)c(Cl)c(Cl)c1C1CCNCC1` [Compound 44, 3,4,5-trichloro-2-(piperidin-4-yl)phenol], the IC50 on hERG channel was less than 30 µM; on Kv1.3 potassium channel, less than 1 µM.

Broadly, the IC50 is the concentration needed to halve the response being measured.
